Experimental data taken from patent US20230082611A1, “COMPOSITIONS AND METHODS FOR THE TREATMENT OF RESPIRATORY SYNCYTIAL VIRUS” (Cidara Therapeutics, Inc., priority 2019, published 2023).

Experiments:
Type in all cases: cell-based
[1] = test system: RSV Long strain; assay: RSV microneutralization assay, RSV Long strain; conditions: human respiratory syncytial virus; MOI 0.002, HEp-2 cells, day 6; read-out: RSV Long EC50
Protocol: (§1) Duplicate 10-fold serial dilutions of compound in DMEM with 2% HI-FBS, 1× P/S, 2 mM L-Gln were prepared in 96-well tissue culture plates at 60 μL/well. The RSV Long strain (RetroVirox, San Diego), RSV A2 strain (Virapur, San Diego), RSV B1 strain (RetroVirox, San Diego), or RSV strain CH18537 (RetroVirox, San Diego), were diluted in DMEM with 2% HI-FBS, 1× P/S, 2 mM L-Gln and 60 μL/well added to 60 μL compound for a multiplicity of infection (MOI) of 0.002 (Long, A2), 0.003 (B1), or 0.004 (CH18537). Virus only (no drug) and cells only (no virus, no drug) controls were included on each plate. The compound-virus mix was incubated for 1 h at 37° C. and 5% CO2. After 1 h, medium was removed from HEp-2 cells by aspiration and wells washed once with 100 μL/well 1×PBS pH 7.4 (Fisher cat #MT21040CM). The compound-virus mix (100 μL/well) was added to the cells and incubated for 1 h at 37° C. and 5% CO2 prior to addition of 100 μL/well of DMEM with 2% HI-FBS, 1× P/S, 2 mM L-Gln (200 μL final vol) and incubation at 37° C. and 5% CO2. On day 6 post infection, supernatant was aspirated and cells fixed with 100 μL/well ice-cold 80% acetone in 1×PBS for 20 min at 4° C. The acetone was aspirated and plates air-dried for 20 min at room temperature. The plates were washed 3× with 200 μL/well 1×PBS, 0.05% Tween-20 (PBST) and blocked with 200 μL/well 5% non-fat dry milk (Fisher cat #50-195-952) in PBST for 1 h with shaking (500 rpm) on an orbital plate shaker. The blocking solution was discarded and cells incubated with 100 μL/well mouse anti-F protein antibody (MilliporeSigma cat #MAB8599) diluted 1:2,000 in diluent (blocking solution diluted 1:1 in 1×PBS pH 7.4) for 2 h with shaking. Plates were washed 5× with 300 μL/well PBST and incubated with 100 μL/well HRP-conjugated goat anti-mouse IgG antibody (SouthernBiotech cat #1030-05) diluted 1:1,000 in diluent for 1 h with shaking. Plates were washed 5× with 300 μL/well PBST and incubated with 100 μL/well TMB substrate (Fisher cat #BDB555214) for ˜5 min. The reaction was stopped with 100 μL/well 1N H2SO4. Absorbance was read at 450 nm with an EnSpire multimode plate reader (PerkinElmer). The mean A450 for the cells only control was subtracted from all A450 values, and the percent virus neutralisation calculated for each compound concentration, relative to the virus only control.

[2] = test system: RSV A2 strain; assay: RSV microneutralization assay, RSV A2 strain; conditions: human respiratory syncytial virus; MOI 0.002, HEp-2 cells, day 6
Protocol: as §1, with “HEp-2 cells (ATCC #CCL-23) were seeded at 5E4/well/200 μL in DMEM (Fisher cat #11965118) supplemented with 10% heat-inactivated (HI) fetal bovine serum (HI-FBS; Fisher cat #10-082-147), 1× penicillin-streptomycin (P/S, 100 μg/mL; Fisher cat #MT30002C), and 1× L-glutamine (L-Gln, 2 mM; Fisher cat #25030-164) in 96-well tissue culture treated plates (Fisher cat #08-772-17) and incubated overnight at 37° C. and 5% CO2. Duplicate” for “Duplicate”

[3] = test system: RSV Long; assay: RSV plaque reduction assay, RSV Long; conditions: human respiratory syncytial virus, HEP-2 cells, 6 days, read-out: EC50 RSV Long MOI 0.0001
Protocol: (§2) An RSV plaque reduction assay was performed according to the following protocol. On Day 1, HEP-2 cells were seeded in 24-well plates at 5×10E5 cells/well/500 ul. On Day 2, once the cells are at 100% confluency, the cells were infected at a viral dilution of approximately 30 plaques per well in DMEM+2% FBS infection buffer and treated with compound. The medium was aspirated and cells were infected with 90 ul of viral dilution per well. Then, cells were treated with 10 ul of 10× compound resulting in a final concentration of between 1 nM-10 uM of the compound. The cells were incubated for 2 h at room temperature, rocking every 15 minutes. After 2 h, the inoculum/compound mixture is removed. 450 ul of overlay media (1 part Avicel 2.5%; 1 part DMEM+2% FBS) was added to the well and the cells were treated with 50 ul of 10× compound resulting in a final concentration of 1 nM-10 uM of the compound. The cells were incubated for 6 days at 37 deg C.
(§3) For staining and quantification: The infected cell plates were fixed with 100% methanol for 10 to 30 minutes. The plates were washed three times with 5% milk/PBS, 1 mL/well. A primary antibody, goat anti-RSV polyclonal antibody (Chemicon Cat #AB1128), diluted in 5% milk/PBS at 1:1000 was put onto each well. […] The plates were rinsed 3 times with deionized water, air-dried and the number of plaques was counted.

[4] = test system: RSV B1; assay: RSV plaque reduction assay, RSV B1; conditions: human respiratory syncytial virus, HEP-2 cells, 6 days, read-out: EC50 RSV B1 MOI 0.0001
Protocol: as §2, §3

C#CCOCCOCCOCCOCCOCCCCn1c(CN2C(=O)C3(CCN(C(=O)OC(C)(C)C)CC3)c3ccncc32)nc2cc(Cl)ccc21 [Int-42]
EC50 [1]: 0.22 nM | EC50 [2]: 0.88 nM | EC50 [3]: 17 nM | EC50 [4]: 13 nM
